According to US12048768B2, “Gastro-resistant controlled release oral dosage forms” (Minerva Neurosciences, Inc., priority 2017, dated 2024):

Experiments:
[1] = as disclosed in U.S. Pat. No. 9,458,130; cited from earlier work
[2] = Phase 2b study of MIN-101 in patients with schizophrenia (negative symptoms, cognitive function, CDSS); format: in vivo, human
Description: The oral dosage forms used in this Phase 2b study were the 32 mg MR tablet described in Example 1 below and an essentially identical 64 mg MR tablet.
Thus, in an aspect, administration of a gastro-resistant CR oral dosage form of the present disclosure to a patient with a diagnosis of schizophrenia is intended to improve cognitive function in the patient.
A secondary outcome of the phase 2b study of MIN-101 discussed above was patients' performance on the Calgary Depression Scale for Schizophrenia (CDSS) ADDINGTON D, ADDINGTON J, MATICKA-TYNDALE E. ASSESSING DEPRESSION IN S CHIZOPHRENIA: THE CALGARY DEPRESSION SCALE. BRITISH JOURNAL OF PSYCHIATRY SUPPLEMENT 1993; (22):39-44. The CDSS has little overlap with positive and negative symptoms and has become the recommended scale to assess the severity of depression in patients with schizophrenia. In the phase 2b study, the severity of symptoms as measured by the CDSS was reduced following treatment with 32 or 64 mg of MIN-101 compared to placebo. […] Thus, since the effects of MIN-101 on negative symptoms and depression symptoms in schizophrenia patients were largely independent of each other, MIN-101 has the potential to alleviate one or more depression symptoms in patients who are not schizophrenic.

[3] = human, in vivo

## Cl.O.O.O=C(CN1CCC(CN2Cc3ccccc3C2=O)CC1)c1ccc(F)cc1 [MIN-101, 1H-Isoindol-1-one, 2-[[1-[2-(4-Fluorophenyl)-2-oxoethyl]-4-piperidinyl]methyl]-2,3-dihydro-, hydrochloride, hydrate (1:1:2)]
[1]
  QT prolongation in patients: has been observed
[2]; phase 2b study
  Cognitive function: improvement in cognitive function
[2]; phase 2b, 32 mg and 64 mg MR tablets
  Negative symptoms in patients with schizophrenia: rapid, statistically significant and clinically meaningful reductions in negative symptoms
[2]; phase 2b, 32 or 64 mg compared to placebo
  Severity of depression symptoms as measured by the CDSS: reduced
[3]
  Plasma levels of BFB-520 in CYP2D6 poor metabolizers: high plasma levels of BFB-520
